Laboratory results published in patent publication US20230117034A1, “PYRAZOLOTRIAZINES” (Bayer Aktiengesellschaft, priority 2019, published 2023).

The compounds below were run on MDA-MB-231, human breast cancer cells (assay: Proliferation assay MDA-MB-231 (crystal violet, 4 days)). Details: Homo sapiens, MDA-MB-231, 96 h, MDA-MB-231 cells, median, read-out: Prolif-MDA MB-231, IC50-[mol/l] (median).
Type: cell-based
Protocol: Human tumour cells were originally obtained from the American Type Culture Collection (ATCC), or from the Deutsche Sammlung von Mikroorganismen und Zellkulturen (DSMZ, German Collection of Microorganisms and Cell Cultures). Cultivated tumour cells (CAL-120, human breast adenocarcinoma cells, DSMZ ACC-459; MDA-MB-231, human breast cancer cells, ATCC HTB-26) were plated at a density of 4,000 cells/well in a 96-well multititer plate in 200 microL of their respective growth medium supplemented 10% fetal calf serum. After 24 hours, the cells of one plate (zero-point plate) were stained with crystal violet (see below), while the medium of the other plates was supplemented with the test substances in various concentrations (0 micromol/L, as well as in the range of 0.01-10 micromol/L; the final concentration of the solvent dimethyl sulfoxide was adjusted to 0.1%) using a Tecan HP D300 Digital Dispenser. The cells were incubated for 4 days in the presence of test substances. Cell proliferation was determined by staining the cells with crystal violet: the cells were fixed by adding 20 microL/measuring point of an 11% glutaric aldehyde solution for 15 minutes at room temperature. After three washing cycles of the fixed cells with water, the plates were dried at room temperature. The cells were stained by adding 100 microL/measuring point of a 0.1% crystal violet solution (pH 3.0). After three washing cycles of the stained cells with water, the plates were dried at room temperature. The dye was dissolved by adding 100 microL/measuring point of a 10% acetic acid solution. The extinction was determined by photometry at a wavelength of 595 nm. The change of cell number, in percent, was calculated by normalization of the measured values to the extinction values of the zero-point plate (=0%) and the extinction of the untreated (0 μM) cells (=100%). The IC50 values (inhibitory concentration at 50% of maximal effect) were determined by means of a 4 parameter fit.
Compound Brc1cnn2c(NCc3nc4ccccc4[nH]3)nc(N3CCN(C4CC4)CC3)nc12 [Example 138, N-[(1H-benzimidazol-2-yl)methyl]-8-bromo-2-(4-cyclopropylpiperazin-1-yl)pyrazolo[1,5-a][1,3,5]triazin-4-amine] has an IC50 of 556 nM. Brc1cnn2c(NCc3nc4ccccc4[nH]3)nc(N3CCC3)nc12 [Example 143, 2-(azetidin-1-yl)-N-[(1H-benzimidazol-2-yl)methyl]-8-bromopyrazolo[1,5-a][1,3,5]triazin-4-amine] was tested, and the IC50 was 827 nM. Compound C[C@@H]1CCCCN1c1nc(NCc2nc3ccccc3[nH]2)n2ncc(Br)c2n1 [Example 140, N-[(1H-benzimidazol-2-yl)methyl]-8-bromo-2-[(2R)-2-methylpiperidin-1-yl]pyrazolo[1,5-a][1,3,5]triazin-4-amine] has an IC50 of 315 nM. FC(F)(F)CN1CCN(c2nc(NCc3nc4ccccc4[nH]3)n3ncc(Br)c3n2)CC1 [Example 139, N-[(1H-benzimidazol-2-yl)methyl]-8-bromo-2-[4-(2,2,2-trifluoroethyl)piperazin-1-yl]pyrazolo[1,5-a][1,3,5]triazin-4-amine] gave an IC50 of 539 nM. In the case of CN1CCN(c2nc(NCc3nc4ccccc4[nH]3)n3ncc(Br)c3n2)CC1=O [Example 131, 4-(4-{[(1H-benzimidazol-2-yl)methyl]amino}-8-bromopyrazolo[1,5-a][1,3,5]triazin-2-yl)-1-methylpiperazin-2-one], the IC50 is reported as 682 nM. CN1CCN(c2nc(NCc3nc4ccccc4[nH]3)n3ncc(Br)c3n2)C(CO)C1 (stereo not shown) [Example 155, [1-[4-(1H-benzimidazol-2-ylmethylamino)-8-bromo-pyrazolo[1,5-a][1,3,5]triazin-2-yl]-4-methyl-piperazin-2-yl]methanol] gave an IC50 of 174 nM.

The compounds below were run on BRCA1 mRNA expression in MDA-MB-231 cells (assay: qRT-PCR assay: BRCA1 mRNA expression in MDA-MB-231). Details: Homo sapiens, MDA-MB-231, Inhibition of BRCA1 mRNA expression in MDA-MB-231 cells; median; read-out: RTqPCR-MDA-MB-231, IC50, BRCA1 (median).
Type: cell-based, human
Protocol: 3. qRT-PCR Assay: BRCA, ATR, MCL1 in MDA-MB-231, CAL-120
Tissue cultured human MDA-MB-231 human breast cancer cells were plated in 500 microL per well at 200,000 cells/well in a 24 well microtiter plate. After 24 h, the cells were exposed continuously for 24 h to test substances (substances were added with Tecan HP 0300 Dispenser). RNA was prepared using Qiagen RNeasy MiniKit (#74106), RNA was quantified using a NanoDrop Equipment, and 600 nano gamms of RNA was coverted to cDNA using a SuperScript VILO kit (Thermofisher #11755050) followed by qPCR amplification. BRCA1 and ATR gene expression was measured by RT-qPCR and normalised to GAPDH housekeeping gene expression. qPCR primer sets have been purchased from Thermo Fisher Scientific/Applied Biosystems: BRCA1, #Hs 01556193; ATR, #Hs 00992123; GAPDH, #Hs 03929097.
Compound c1ccc(-c2cnn3c(NCc4nc5ccccc5[nH]4)nc(N4CCOCC4)nc23)cc1 [Example 104, N-[(1H-benzimidazol-2-yl)methyl]-2-(morpholin-4-yl)-8-phenylpyrazolo[1,5-a][1,3,5]triazin-4-amine] has an IC50 of 30 nM. NCCc1ccc2[nH]c(CNc3nc(N4CCOCC4)nc4c(Br)cnn34)nc2c1.O=CO [Example 113, formic acid-N-{[5-(2-aminoethyl)-1H-benzimidazol-2-yl]methyl}-8-bromo-2-(morpholin-4-yl)pyrazolo[1,5-a][1,3,5]triazin-4-amine (1/1)] showed an IC50 of 21.1 nM. Compound Fc1ccccc1-c1cnn2c(NCc3nc4ccccc4[nH]3)nc(N3CCOCC3)nc12 [Example 95, N-[(1H-benzimidazol-2-yl)methyl]-8-(2-fluorophenyl)-2-(morpholin-4-yl)pyrazolo[1,5-a][1,3,5]triazin-4-amine] has an IC50 of 147 nM. CC1(C)CN(c2nc(NCc3nnc(-c4ccccc4)[nH]3)n3ncc(C4CC4)c3n2)CCO1 [Example 94, 8-cyclopropyl-2-(2,2-dimethylmorpholin-4-yl)-N-[(5-phenyl-4H-1,2,4-triazol-3-yl)methyl]pyrazolo[1,5-a][1,3,5]triazin-4-amine] showed an IC50 of 222 nM. For Clc1cccc(-c2cnn3c(NCc4nc5ccccc5[nH]4)nc(N4CCOCC4)nc23)c1 [Example 107, N-[(1H-benzimidazol-2-yl)methyl]-8-(3-chlorophenyl)-2-(morpholin-4-yl)pyrazolo[1,5-a][1,3,5]triazin-4-amine], the IC50 was 151 nM. Work on CN1CCN(c2nc(NCc3nnc(-c4ccccc4)[nH]3)n3ncc(Br)c3n2)CC1=O [Example 121, 4-(8-bromo-4-{[(5-phenyl-4H-1,2,4-triazol-3-yl)methyl]amino}pyrazolo[1,5-a][1,3,5]triazin-2-yl)-1-methylpiperazin-2-one] yielded an IC50 of 344 nM. Compound CC(C)c1cnn2c(NCc3nc4ccccc4[nH]3)nc(N3CCOC[C@H]3C)nc12 [Example 7, N-[(1H-benzimidazol-2-yl)methyl]-2-[(3R)-3-methylmorpholin-4-yl]-8-(propan-2-yl)pyrazolo[1,5-a][1,3,5]triazin-4-amine] has an IC50 of 203 nM.
